The test system of series [1] is HCT-116. Description: Antiproliferative activity against human HCT-116 cells assessed as cell growth inhibition measured after 72 hrs by SRB assay. Format: functional, cell-based. The settings on record: HCT-116, 72 h.
The subject of another series is A549. Description: Antiproliferative activity against human A549 cells assessed as cell growth inhibition measured after 72 hrs by SRB assay. The settings on record: A549, 72 h. It is filed as functional, cell-based. A general note: Sulforhodamine B stains cellular protein and so reports cell mass.
The test system of a further series is MDA-MB-436. Put plainly: Antitumor activity against human MDA-MB-436 cells xenografted in athymic nude mouse assessed as tumor volume inhibition at 60 mg/kg per day, po. Format: functional. For orientation: A xenograft is tissue or cells of one species grown in another, often human tumour cells in immunodeficient mice.
The next series concerns SK-OV-3. Description: Antitumor activity against human SK-OV-3 cells xenografted in athymic nude mouse assessed as tumor volume inhibition at 60 mg/kg per day, po. Format: functional.
A further series deals with MV4-11. Description: Antitumor activity against human MV4-11 cells xenografted in athymic nude mouse assessed as tumor volume inhibition at 60 mg/kg per day, po. Format: functional.
Series [2] has as its system HCT-116. Put plainly: Antitumor activity against human HCT-116 cells xenografted in athymic nude mouse assessed as tumor volume inhibition at 60 mg/kg per day, po. It is filed as functional.
Another series relates to NCI-H1975. Description: Antitumor activity against human NCI-H1975 cells xenografted in athymic nude mouse assessed as tumor volume inhibition at 60 mg/kg per day, po. It is filed as functional.
Series [3] can be described thus: Aqueous solubility of compound by HPLC method. Format: physicochemical. Conditions: water (aqueous).
The next series concerns U-251. Description: Antiproliferative activity against human U-251MG cells assessed as cell growth inhibition. Format: functional, cell-based.
A further series has as its system SF-188. Put plainly: Antiproliferative activity against human SF-188 cells assessed as cell growth inhibition. It is filed as functional, cell-based.
Series [4] in a line: Cytotoxicity against human Astrocyte cells assessed as cell growth inhibition. Format: toxicity, cell-based.

Converted amounts (≈) assume the structure as drawn.

Turning to `CCc1c2c(nc3ccc(O)cc13)-c1cc3c(c(=O)n1C2)COC(=O)[C@@]3(CC)OC(=O)CNC(=O)ONC(=O)CCCCCCC(=O)Nc1ccccc1`, the IC50 (commonly the concentration that inhibits the measured activity by half) with HCT-116 [1] worked out at 113 nM; with A549, 87.3 nM.

On to `CC(=O)SCCCCC[C@H](NC(=O)[C@H]1CCC(=O)N1)C(=O)Nc1ccccc1`, for which the inhibition in vivo (in general, how much of the control response was suppressed) at 60 mg/kg turned out to be 35% with MDA-MB-436; 59% in the series with SK-OV-3; 70% with MV4-11; 77% in the series with HCT-116 [2]; 65% in the series on NCI-H1975.

Regarding `CN(CCOC(=O)ONC(=O)CCCCCCC(=O)Nc1ccccc1)C(=O)OCc1ccc(O[C@@H]2O[C@H](C(=O)O)[C@@H](O)[C@H](O)[C@H]2O)c([N+](=O)[O-])c1`, the solubility (in general, the dissolved amount per volume that the medium holds) in [3] turned out to be 40 mg/mL (≈ 54.3 mM).

In the case of `CN(CCOC(=O)ONC(=O)CCCCCCC(=O)Nc1ccccc1)C(=O)OCc1ccc(O[C@@H]2O[C@H](C(=O)O)[C@@H](O)[C@H](O)[C@H]2O)c(N)c1`, the concentration in solution in [3] (solubility) was 55 mg/mL (≈ 77.8 mM).

The molecule `CN(CCOC(=O)ONC(=O)/C=C/c1cccc(S(=O)(=O)Nc2ccccc2)c1)C(=O)OCc1ccc(O[C@@H]2O[C@H](C(=O)O)[C@@H](O)[C@H](O)[C@H]2O)c(N)c1` displayed a solubility in [3] of 100 mg/mL (≈ 131 mM).

With `CCc1c2c(nc3ccc(O)cc13)-c1cc3c(c(=O)n1C2)COC(=O)[C@]3(O)CC` [7-ETHYL-10-HYDROXYCAMPTOTHECIN], the concentration for half-maximal inhibition (IC50) turned out to be 55.1 nM in the series with HCT-116 [1] and 45.4 nM with A549.

In series [3], `CN(CCOC(=O)ONC(=O)/C=C/c1cccc(S(=O)(=O)Nc2ccccc2)c1)C(=O)OCc1ccc(O[C@@H]2O[C@H](C(=O)O)[C@@H](O)[C@H](O)[C@H]2O)c([N+](=O)[O-])c1` yielded a solubility of 80 mg/mL (≈ 101 mM).

`CCCC(=O)OCOC(=O)CCCc1ccccc1`: the half-maximal inhibitory concentration (IC50) with U-251 is 154000 nM; in the series with SF-188, 76000 nM; in series [4], 291000 nM.

Source of the values: ChEMBL document CHEMBL5230091, “Histone deacetylase inhibitor based prodrugs” (Eur J Med Chem, 2020).
